# From patent US10092551B2, “Spiro-thiazolones” (Hoffmann-La Roche Inc., priority 2014, dated 2018)
# Structures can show the parent of a compound that is named as a salt.
# Target: human V1a receptor (Homo sapiens (Human), UniProt P37288)
# Experiment: human V1a receptor binding studies (3H-Vasopressin, SPA beads)
# Conditions: membranes of HEK293 cells transiently transfected with human V1a receptor, Ki by Cheng-Prussoff
# How it was run: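 Membranes from HEK293 cells transiently expressing cloned human V1a receptor, bound on yttrium silicate SPA beads with 4 nM 3H-vasopressin (added stock) and serially diluted compound, 1 h at room temperature. Non-specific binding defined with cold vasopressin; IC50 by non-linear regression, Ki via Cheng-Prusoff.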
# Chain of human V1a receptor (P37288 whole entry): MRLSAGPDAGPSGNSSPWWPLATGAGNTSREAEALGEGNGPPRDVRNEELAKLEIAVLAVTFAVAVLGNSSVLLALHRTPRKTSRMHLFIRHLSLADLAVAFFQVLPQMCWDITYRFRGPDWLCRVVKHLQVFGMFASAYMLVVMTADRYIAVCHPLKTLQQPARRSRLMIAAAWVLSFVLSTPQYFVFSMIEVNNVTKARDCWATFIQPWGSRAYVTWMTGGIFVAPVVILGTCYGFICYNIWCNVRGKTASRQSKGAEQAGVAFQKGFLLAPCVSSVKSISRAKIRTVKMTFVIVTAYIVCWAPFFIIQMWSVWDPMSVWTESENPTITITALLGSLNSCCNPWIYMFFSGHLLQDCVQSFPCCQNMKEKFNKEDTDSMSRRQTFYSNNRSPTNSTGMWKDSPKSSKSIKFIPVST
row,pKi hV1a,SMILES
1,7.6,"C=C/C(C)=C1\SC(N2CCC3(CC2)OCc2ccccc23)=NC1=O [Example 70, (5E/Z)-5-(but-3-en-2-ylidene)-2-(1′H,3H-spiro[2-benzofuran-1,4′-piperidin]-1′-yl)-1,3-thiazol-4(5H)-one]"
2,9.4,"O=C1N=C(N2CCC3(CC2)OCc2ccccc23)S/C1=C(/CF)c1ccc(Cl)cc1 [Example 23, (5E/Z)-5-[1-(4-chlorophenyl)-2-fluoroethylidene]-2-(1′H,3H-spiro[2-benzofuran-1,4′-piperidin]-1′-yl)-1,3-thiazol-4(5H)-one]"
3,9.0,"O=C1N=C(N2CCC3(CC2)OCc2ccccc23)S/C1=C(\CO)c1ccccc1 [Example 127, (5Z)-5-(2-hydroxy-1-phenylethylidene)-2-(1′H,3H-spiro[2-benzofuran-1,4′-piperidin]-1′-yl)-1,3-thiazol-4(5H)-one]"
4,8.8,"CC(C)C(=C1SC(N2CCC3(CC2)OCc2ccccc23)=NC1=O)C(C)C [Example 120, 5-(2,4-dimethylpentan-3-ylidene)-2-(1′H,3H-spiro[2-benzofuran-1,4′-piperidin]-1′-yl)-1,3-thiazol-4(5H)-one]"
5,8.9,"C/C(=C1/SC(N2CCC3(CC2)OCc2ccccc23)=NC1=O)c1ccco1 [Example 35, (5Z)-5-[1-(furan-2-yl)ethylidene]-2-(1′H,3H-spiro[2-benzofuran-1,4′-piperidin]-1′-yl)-1,3-thiazol-4(5H)-one]"
6,7.7,"C/C(CNC(=O)OC(C)(C)C)=C1\SC(N2CCC3(CC2)OCc2ccccc23)=NC1=O [Example 65, tert-butyl {(2E)-2-[4-oxo-2-(1′H,3H-spiro[2-benzofuran-1,4′-piperidin]-1′-yl)-1,3-thiazol-5(4H)-ylidene]propyl}carbamate]"
7,7.9,"C/C(=C1/SC(N2CCC3(CC2)OCc2ccccc23)=NC1=O)C1CCOCC1 [Example 78, (5E/Z)-2-(1′H,3H-spiro[2-benzofuran-1,4′-piperidin]-1′-yl)-5-[1-(tetrahydro-2H-pyran-4-yl)ethylidene]-1,3-thiazol-4(5H)-one]"
8,8.8,"[2H]C([2H])([2H])/C(=C1/SC(N2CCC3(CC2)OCc2ccccc23)=NC1=O)c1ccccc1 [Example 173, (5Z)-5-[1-phenyl(^2H3)ethylidene]-2-(1′H,3H-spiro[2-benzofuran-1,4′-piperidin]-1′-yl)-1,3-thiazol-4(5H)-one]"
9,8.9,"O=C1N=C(N2CCC3(CC2)OCc2ccccc23)S/C1=C(/CO)c1ccc(Cl)nc1 [Example 130, (5E)-5-[1-(6-chloropyridin-3-yl)-2-hydroxyethylidene]-2-(1′H,3H-spiro[2-benzofuran-1,4′-piperidin]-1′-yl)-1,3-thiazol-4(5H)-one]"
10,8.7,"[2H]C([2H])([2H])/C(=C1\SC(N2CCC3(CC2)OCc2ccccc23)=NC1=O)c1ccccc1 [Example 174, (5E)-5-[1-phenyl(^2H3)ethylidene]-2-(1′H,3H-spiro[2-benzofuran-1,4′-piperidin]-1′-yl)-1,3-thiazol-4(5H)-one]"
11,8.9,"C/C(=C1/SC(N2CCC3(CC2)OCc2ccccc23)=NC1=O)c1cccnc1 [Example 39, (5Z)-5-[1-(pyridin-3-yl)ethylidene]-2-(1′H,3H-spiro[2-benzofuran-1,4′-piperidin]-1′-yl)-1,3-thiazol-4(5H)-one]"
12,8.4,"C/C(=C1/SC(N2CCC3(CC2)OCc2ccccc23)=NC1=O)C1CC1 [Example 42, (5E/Z)-5-(1-cyclopropylethylidene)-2-(1′H,3H-spiro[2-benzofuran-1,4′-piperidin]-1′-yl)-1,3-thiazol-4(5H)-one]"
13,8.0,"[2H]C([2H])([2H])/C(=C1\SC(N2CCC3(CC2)OCc2ccccc23)=NC1=O)c1ccc(C)nc1 [Example 170, (5E)-5-[1-(6-methylpyridin-3-yl)(^2H3)ethylidene]-2-(1′H,3H-spiro[2-benzofuran-1,4′-piperidin]-1′-yl)-1,3-thiazol-4(5H)-one]"
14,8.7,"C/C(=C1/SC(N2CCC3(CC2)OCc2ccccc23)=NC1=O)C1CCCCC1 [Example 29, (5Z)-5-(1-cyclohexylethylidene)-2-(1′H,3H-spiro[2-benzofuran-1,4′-piperidin]-1′-yl)-1,3-thiazol-4(5H)-one]"
15,7.9,"CC/C(=C1\SC(N2CCC3(CC2)OCc2ccccc23)=NC1=O)c1ccncc1 [Example 32, (5E)-5-[1-(pyridin-4-yl)propylidene]-2-(1′H,3H-spiro[2-benzofuran-1,4′-piperidin]-1′-yl)-1,3-thiazol-4(5H)-one]"
16,8.9,"CCCC(CCC)=C1SC(N2CCC3(CC2)OCc2ccccc23)=NC1=O [Example 114, 5-(heptan-4-ylidene)-2-(1′H,3H-spiro[2-benzofuran-1,4′-piperidin]-1′-yl)-1,3-thiazol-4(5H)-one]"
17,8.4,"COc1ccc(/C(C)=C2\SC(N3CCC4(CC3)OCc3ccccc34)=NC2=O)cn1 [Example 85, (5E/Z)-5-[1-(6-methoxypyridin-3-yl)ethylidene]-2-(1′H,3H-spiro[2-benzofuran-1,4′-piperidin]-1′-yl)-1,3-thiazol-4(5H)-one]"
18,8.7,"C/C(=C1\SC(N2CCC3(CC2)OCc2ccccc23)=NC1=O)c1ncccc1C [Example 155, (5E)-5-[1-(3-methylpyridin-2-yl)ethylidene]-2-(1′H,3H-spiro[2-benzofuran-1,4′-piperidin]-1′-yl)-1,3-thiazol-4(5H)-one]"
19,7.9,"CC(C)(C)/C(=C1/SC(N2CCC3(CC2)OCc2ccccc23)=NC1=O)c1ccc(Cl)cc1 [Example 21, (5E/Z)-5-[1-(4-chlorophenyl)-2,2-dimethylpropylidene]-2-(1′H,3H-spiro[2-benzofuran-1,4′-piperidin]-1′-yl)-1,3-thiazol-4(5H)-one]"

# The next lines start with the compound.
row,SMILES,pKi hV1a
1,"CC(C)(C)OC(=O)N1CCC(=C2SC(N3CCC4(CC3)OCc3ccccc34)=NC2=O)CC1 [Example 41, tert-butyl 4-[4-oxo-2-(1′H,3H-spiro[2-benzofuran-1,4′-piperidin]-1′-yl)-1,3-thiazol-5(4H)-ylidene]piperidine-1-carboxylate]",7.6
2,"O=C1N=C(N2CCC3(CC2)OC(=O)c2ccccc23)S/C1=C(\CO)c1ccccc1 [Example 142, 1′-[(5Z)-5-(2-hydroxy-1-phenylethylidene)-4-oxo-4,5-dihydro-1,3-thiazol-2-yl]-3H-spiro[2-benzofuran-1,4′-piperidin]-3-one]",8.4
3,"CC(C)(C)OC(=O)N1CCC/C(=C2/SC(N3CCC4(CC3)OCc3ccccc34)=NC2=O)CC1 [Example 80, tert-butyl (4E/Z)-4-[4-oxo-2-(1′H,3H-spiro[2-benzofuran-1,4′-piperidin]-1′-yl)-1,3-thiazol-5(4H)-ylidene]azepane-1-carboxylate]",7.1
4,"C/C(=C1/SC(N2CCC3(CC2)OC(=O)c2ccccc23)=NC1=O)c1ccccc1 [Example 156, 1′-[(5Z)-4-oxo-5-(1-phenylethylidene)-4,5-dihydro-1,3-thiazol-2-yl]-3H-spiro[2-benzofuran-1,4′-piperidin]-3-one]",9.3
5,"C/C(=C1\SC(N2CCC3(CC2)OC(=O)c2ccccc23)=NC1=O)c1ccc(Cl)nc1 [Example 138, 1′-{(5E)-5-[1-(6-chloropyridin-3-yl)ethylidene]-4-oxo-4,5-dihydro-1,3-thiazol-2-yl}-3H-spiro[2-benzofuran-1,4′-piperidin]-3-one]",8.3
6,"O=C1N=C(N2CCC3(CC2)OC(=O)c2ccccc23)S/C1=C(/CO)c1ccccc1 [Example 143, 1′-[(5E)-5-(2-hydroxy-1-phenylethylidene)-4-oxo-4,5-dihydro-1,3-thiazol-2-yl]-3H-spiro[2-benzofuran-1,4′-piperidin]-3-one]",8.8
7,"CC/C(=C1/SC(N2CCC3(CC2)OC(=O)c2ccccc23)=NC1=O)c1ccc(Cl)nc1 [Example 150, 1′-{(5Z)-5-[1-(6-chloropyridin-3-yl)propylidene]-4-oxo-4,5-dihydro-1,3-thiazol-2-yl}-3H-spiro[2-benzofuran-1,4′-piperidin]-3-one]",9.0
8,"O=C1N=C(N2CCC3(CC2)OCc2ccccc23)S/C1=C\c1ccccn1 [Example 90, (5Z)-5-(pyridin-2-ylmethylidene)-2-(1′H,3H-spiro[2-benzofuran-1,4′-piperidin]-1′-yl)-1,3-thiazol-4(5H)-one]",7.3
9,"Cc1cc(/C=C2\SC(N3CCC4(CC3)OCc3ccccc34)=NC2=O)no1 [Example 93, 5-[(5-methyl-1,2-oxazol-3-yl)methylidene]-2-(1′H,3H-spiro[2-benzofuran-1,4′-piperidin]-1′-yl)-1,3-thiazol-4(5H)-one]",8.1
10,"COC1CCCC/C1=C1/SC(N2CCC3(CC2)OCc2ccccc23)=NC1=O (centres unmarked) [Example 73, (5E/Z)-5-(2-methoxycyclohexylidene)-2-(1′H,3H-spiro[2-benzofuran-1,4′-piperidin]-1′-yl)-1,3-thiazol-4(5H)-one]",8.8
11,"C/C(=C1/SC(N2CCC3(CC2)OCc2ncccc23)=NC1=O)c1ccc(Cl)cc1 [Example 6, (5E/Z)-5-[1-(4-chlorophenyl)ethylidene]-2-(1′H,7H-spiro[furo[3,4-b]pyridine-5,4′-piperidin]-1′-yl)-1,3-thiazol-4(5H)-one]",9.3
12,"O=C1N=C(N2CCC3(CC2)OCc2ccccc23)SC1=C(c1ccc[nH]1)c1ccc[nH]1 [Example 122, 5-(di-1H-pyrrol-2-ylmethylidene)-2-(1′H,3H-spiro[2-benzofuran-1,4′-piperidin]-1′-yl)-1,3-thiazol-4(5H)-one]",9.0

# Same assay, conditions: membranes of HEK293 cells transiently transfected with human V1a receptor, Ki by Cheng-Prussoff, read-out: pKi hV1a (converted)
row,Ki [nM],SMILES
1,126,"O=C1N=C(N2CCC3(CC2)OCc2ccccc23)SC1=C1CCCNCC1 (racemic) [Example 81, (5E/Z)-5-(azepan-4-ylidene)-2-(1′H,3H-spiro[2-benzofuran-1,4′-piperidin]-1′-yl)-1,3-thiazol-4(5H)-one hydrochloride]"
